Test results taken from patent US11169145B2, “Methods of detection and treatment for cardiovascular disease and foot wounds” (Washington University, priority 2017, dated 2021).
“Also recorded” adds a separate entry of the source.

Experiments:
[1] = cited from earlier work
[2] = cited from earlier work; remark: listed apart in the source
[3] = MR-derived skeletal muscle blood flow (SMBF) in subjects with T2D with or without Cilostazol therapy; format: in vivo, human; details: subjects with T2D, 12 months of Cilostazol vs not treated, at rest and with exercise; critically ischemic limbs (ABI <0.5)
From the text: MG=Medial Gastrocnemius, SOL=Soleus, color bar unit=ml/min/100 g.

[4] = cited from earlier work; remark: listed apart in the source
[5] = tested on: serum circulating Fatty Acid Synthase (cFAS); assay: Serum cFAS (ELISA) in subjects with T2D and PAD with or without Cilostazol therapy; format: in vivo, human; details: subjects with T2D and PAD receiving Cilostazol therapy vs subjects not receiving the medication
Method: FIG. 9A-FIG. 9C is a series of graphs showing serum cFAS is a biomarker for disease subjects with PAD and T2D. cFAS was evaluated using 96-well ELISA (Aviva Systems Biology) FIG. 9A. Subjects with severe PAD (n=29) had more serum cFAS than subjects with moderate PAD (n=30), and subjects with no PAD (n=22). FIG. 9B. cFAS is elevated in subjects with T2D (n=40) compared to no T2D (n=41). FIG. 9C. cFAS is also elevated in subjects with DCSI ≥5 (n=15) compared to DCSI <5 (n=14). FIG. 11A-FIG. 11B is a pie chart and box plot showing cilostazol in our subjects with T2D and PAD. FIG. 11A. In our current clinical practice, Cilostazol therapy is currently administered to only a minority of subjects, and therefore the majority of patients would likely meet study eligibility criteria. FIG. 11B. Subjects with T2D and PAD who receive Cilostazol therapy have lower cFAS (whiskers indicate max and min values) in study cohort. Over a 1 year period, we collected serum specimens from subjects with peripheral arterial disease (PAD; severe or moderate), and/or T2D. Serum cFAS content and enzymatic activity was evaluated as a potential biomarker for PAD and T2D disease severity. […] We retrospectively reviewed patient encounters at the Barnes-Jewish Hospital vascular surgery clinic over a 6-month period to determine the prevalence of Cilostazol prescriptions among subjects with T2D, PAD and/or FWs.

[6] = cited from earlier work; remark: listed apart in the source
[7] = 8-week course, patients with T2D and PAD
[8] = 3 to 6 month course of Cilostazol therapy

## O=C1CCc2cc(OCCCCc3nnnn3C3CCCCC3)ccc2N1 [Cilostazol, 6-[4-(1-cyclohexyl-1H-tetrazol-5-yl)butoxy]-3,4-dihydrocarbostyril]
[1]; [7]
  lower extremity ischemic symptoms: improving
  peripheral skin perfusion detected with transcutaneous oxygen pressure (TcPO2): improve
[1]; patients with T2D
  onset of FWs: prevent
[1]; previous studies
  peripheral skin perfusion: enhance
  wound healing: promote
[2]; 3-month treatment course, patients with claudication
  increase in walking distance: 35-50%
[2]; previous studies
  limb function (walking distance): improve
[3]
  skeletal muscle blood flow (SMBF), lower leg perfusion by MR: improved perfusion; also recorded: Subject not treated with Cilostazol (top) demonstrated less lower leg perfusion
[4]; [8]
  pro-atherogenic / serum lipid profiles: improve; also recorded: normalize
  total cholesterol and serum LDL: decrease
[4]; meta-analysis of 12 RCTs, patients with T2D
  risk of total vascular events, especially cerebrovascular events: significantly decrease
[4]; previous literature
  PUFA to SFA ratio: alter
[5]
  serum cFAS: significantly lower
[6]; FDA black-box warning in this patient population
  effect on Class III-IV heart failure: can exacerbate the condition
[6]; incidence
  minor side effect: abdominal pain: 5%
  minor side effect: arthritis: 2%
  minor side effect: cough: 4%
  minor side effect: diarrhea: 19%
  minor side effect: dizziness: 10%
  minor side effect: dyspepsia: 6%
  minor side effect: flatulence: 3%
  minor side effect: headaches: 34%
  minor side effect: myalgia: 3%
  minor side effect: nausea: 7%
  minor side effect: pharyngitis: 10%
  minor side effect: skin rash: 2%
  minor side effect: vertigo: 2%
  minor side effect: vomiting: 2%
